Results: patent US10688082B2, “Aminopyrazine compounds with A2A antagonist properties” (Merck Sharp & Dohme Corp., priority 2015, dated 2020)

Target: T1, human A2a receptor (Homo sapiens, UniProt P29274)
T1 construct: purchased Perkin-Elmer RBHA2AM400UA; host or cells: HEK293 cells (membranes)
Test: Competition binding assay using Scintillation Proximity technology (A2a activity)
Method: Binding affinities of compounds of the invention for the human A2a receptor were determined in a competition binding assay using Scintillation Proximity technology. Thus, […] from HEK293 cells expressing the human A2a receptor were incubated with a compound of the invention at concentrations ranging from 3000 nM to 0.15 nM in a reaction mixture containing also 0.5 nM of a tritiated form of 5-amino-7-[2-phenethyl]-2-(furan-2-yl)-7H-pyrazolo[4,3-e][1,2,4]triazolo[1,5-c]pyrimidine (the tritiated compound) and 100 μg of wheat germ agglutin-coated yttrium silicate SPA beads for one hour at room temperature with agitation. The beads were then allowed to settle to the bottom of the wells for 1 hr, after which the membrane-associated radioactivity was determined by scintillation counting in a TopCount microplate reader. Ki values were determined using the Cheng-Prusoff equation.
HEK293 cells expressing the human, rat, dog or monkey adenosine 2a receptor (Purchased from Perkin-Elmer # RBHA2AM400UA).
The Tritiated compound was prepared according to published methods.
Wheat germ agglutinin-coated yttrium silicate SPA beads (GE Healthcare # RPNQ0023). Dilute to 25 mg/ml in assay buffer.
Assay Buffer was prepared using Dulbecco's calcium and magnesium free phosphate buffered saline+10 mM MgCl2
Adenosine deaminase from calf intestine, 10 mg/2 ml (Roche #10 102 105 001).
A2a antagonist standard (9-chloro-1-(2-furanyl)-[1,2,4]triazolo1,5-c]quinazolin-5-amine from Tocris Bioscience)
Make eight 1:3 serial dilutions in 100% DMSO from a 3 mM compound stock
Transfer 50 nl of compound into a 384-well OptiPlate (Perkin Elmer).
Typically, final concentrations of compound used in the assay ranged from 3000 nM to 0.152 nM.
Dilute a solution of the Tritiated compound to 1.25 nM in assay buffer. This is a 2.5× solution. The final concentration in the assay is 0.5 nM. Calculate the concentration by counting two 5 μl aliquots.
Use 0.25 ug of membrane/well. Dilute membranes to 9.7 μg/ml in assay buffer. Treat with 20 ug/ml adenosine deaminase (ADA) for 15 minutes at room temperature to degrade endogenous adenosine.
Use 100 μg/well wheat germ agglutinin-coated yttrium silicate SPA beads.
Mix ADA-treated membranes and SPA beads together for 30 min prior to assay.
To the Perkin-Elmer Optiplate-384 containing the compound titration add 20 μl of 2.5× solution of the Tritiated compound and 30 μl of the membrane-bead mixture. Incubate for one hour at room temperature with agitation.
Include total binding (assay buffer+1% DMSO) and non-specific binding (CGS15943, 1 μM) wells.
Allow the beads to settle for one hour.
A curve fitting program (i.e., Prism, Activity Base, Chemcart) is used to determine the EC50. The Ki value is calculated using the Cheng-Prusoff equation. K i=EC50/(1+(radioligand concentration/Kd))

[1] = membranes from HEK293 cells expressing the human A2a receptor, 0.5 nM tritiated ligand, Cheng-Prusoff

T1 sequence (P29274 whole entry): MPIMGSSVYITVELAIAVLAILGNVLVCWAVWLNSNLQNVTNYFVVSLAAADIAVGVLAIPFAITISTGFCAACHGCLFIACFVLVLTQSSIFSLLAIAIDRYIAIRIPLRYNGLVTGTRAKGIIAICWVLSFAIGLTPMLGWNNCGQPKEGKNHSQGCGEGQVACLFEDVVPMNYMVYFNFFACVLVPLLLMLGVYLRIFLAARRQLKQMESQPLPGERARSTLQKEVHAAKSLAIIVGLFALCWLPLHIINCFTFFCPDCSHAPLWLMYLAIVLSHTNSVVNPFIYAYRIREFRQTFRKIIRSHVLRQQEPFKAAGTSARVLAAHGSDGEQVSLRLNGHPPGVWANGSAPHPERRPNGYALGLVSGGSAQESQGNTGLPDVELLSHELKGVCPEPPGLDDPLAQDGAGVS

| Structure (SMILES) | Ki [1] | Ki (same protocol) |
| --- | --- | --- |
| COc1cccc2c1nc(N)n1nc(-c3cnco3)cc21 [Ex-2, 7-methoxy-2-(oxazol-5-yl)pyrazolo[1,5-c]quinazolin-5-amine] | 20 nM |  |
| COCCOc1ccc(N2CCN(CCOc3cccc4c3nc(N)n3nc(-c5ccco5)cc43)CC2)cc1 [Ex-3, 2-(furan-2-yl)-7-(2-(4-(4-(2-methoxyethoxy)phenyl)piperazin-1-yl)ethoxy)pyrazolo[1,5-c]quinazolin-5-amine] | 677 nM |  |
| COc1cccc2c1nc(N)n1nc(Cc3ccccc3)cc21 [Ex-4, 2-benzyl-7-methoxypyrazolo[1,5-c]quinazolin-5-amine] |  | 9 nM |
| COc1cccc2c1nc(N)n1nc(Cc3ccc(F)cc3)cc21 [Ex-5, 2-(4-fluorobenzyl)-7-methoxypyrazolo[1,5-c]quinazolin-5-amine] | 12 nM |  |
| COc1cccc2c1nc(N)n1nc(Cc3ccc(F)cc3F)cc21 [Ex-6, 2-(2,4-difluorobenzyl)-7-methoxypyrazolo[1,5-c]quinazolin-5-amine] | 10 nM |  |
| COc1cccc2c1nc(N)n1nc(Cc3cccc4ccccc34)cc21 [Ex-7, 7-methoxy-2-(naphthalen-1-ylmethyl)pyrazolo[1,5-c]quinazolin-5-amine] | 16 nM |  |
| COc1cccc2c1nc(N)n1nc(Cc3ccc(N4CCCCC4)cc3)cc21 [Ex-8, 7-methoxy-2-(4-(piperidin-1-yl)benzyl)pyrazolo[1,5-c]quinazolin-5-amine] | 136 nM |  |
| COc1cccc2c1nc(N)n1nc(Cc3cccc4cccnc34)cc21 [Ex-9, 7-methoxy-2-(quinolin-8-ylmethyl)pyrazolo[1,5-c]quinazolin-5-amine] | 3 nM |  |
| COc1cccc2c1nc(N)n1nc(Cc3cncnc3)cc21 [Ex-10, 7-methoxy-2-(pyrimidin-5-ylmethyl)pyrazolo[1,5-c]quinazolin-5-amine] | 36 nM |  |
| COc1cccc2c1nc(N)n1nc(Cc3ccc(N(C)C)cc3)cc21 [Ex-11, 2-(4-(dimethylamino)benzyl)-7-methoxypyrazolo[1,5-c]quinazolin-5-amine] | 61 nM |  |
| COc1cccc2c1nc(N)n1nc(Cc3ccc(N4CCN(C)CC4)cc3)cc21 [Ex-12, 7-methoxy-2-(4-(4-methylpiperazin-1-yl)benzyl)pyrazolo[1,5-c]quinazolin-5-amine] | 316 nM |  |
| COc1cccc2c1nc(N)n1nc(Cc3csc(N4CCN(C)CC4)n3)cc21 [Ex-13, 7-methoxy-2-((2-(4-methylpiperazin-1-yl)thiazol-4-yl)methyl)pyrazolo[1,5-c]quinazolin-5-amine] | 373 nM |  |
| COc1cccc2c1nc(N)n1nc(Cc3ccnc4ccccc34)cc21 [Ex-14, 7-methoxy-2-(quinolin-4-ylmethyl)pyrazolo[1,5-c]quinazolin-5-amine] | 2 nM |  |
| COc1cccc2c1nc(N)n1nc(Cc3cccc4ncccc34)cc21 [Ex-15, 7-methoxy-2-(quinolin-5-ylmethyl)pyrazolo[1,5-c]quinazolin-5-amine] | 85 nM |  |
| COc1cccc2c1nc(N)n1nc(Cc3ccc4[nH]ncc4c3)cc21 [Ex-16, 2-((1H-indazol-5-yl)methyl)-7-methoxypyrazolo[1,5-c]quinazolin-5-amine] | 131 nM |  |
| COc1cccc2c1nc(N)n1nc(Cc3ccccc3C(F)(F)F)cc21 [Ex-17, 7-methoxy-2-(2-(trifluoromethyl)benzyl)pyrazolo[1,5-c]quinazolin-5-amine] | 17 nM |  |
| COc1cccc2c1nc(N)n1nc(Cc3ccccc3N3CCOCC3)cc21 [Ex-18, 7-methoxy-2-(2-morpholinobenzyl)pyrazolo[1,5-c]quinazolin-5-amine] | 3 nM |  |
| COc1cccc2c1nc(N)n1nc(Cc3ccccc3N3CCNCC3)cc21 [Ex-19, 7-methoxy-2-(2-(piperazin-1-yl)benzyl)pyrazolo[1,5-c]quinazolin-5-amine] | 67 nM |  |
| COc1cccc2c1nc(N)n1nc(Cc3cccnc3N3CCOCC3)cc21 [Ex-20, 7-methoxy-2-((2-morpholinopyridin-3-yl)methyl)pyrazolo[1,5-c]quinazolin-5-amine] | 15 nM |  |
| COc1cccc2c1nc(N)n1nc(Cc3ccccc3CN3CCOCC3)cc21 [Ex-21, 7-methoxy-2-(2-(morpholinomethyl)benzyl)pyrazolo[1,5-c]quinazolin-5-amine] | 51 nM |  |
| COc1cccc2c1nc(N)n1nc(Cc3ccc(N4CCOCC4)cc3)cc21 [Ex-22, 7-methoxy-2-(4-morpholinobenzyl)pyrazolo[1,5-c]quinazolin-5-amine] | 128 nM |  |
| COc1cccc2c1nc(N)n1nc(Cc3cccc(N4CCOCC4)c3)cc21 [Ex-23, 7-methoxy-2-(3-morpholinobenzyl)pyrazolo[1,5-c]quinazolin-5-amine] | 26 nM |  |
| COc1cccc2c1nc(N)n1nc(Cc3ccc(N4CCN(C(=O)OC(C)(C)C)CC4)cc3)cc21 [Ex-24, tert-butyl 4-(4-((5-amino-7-methoxypyrazolo[1,5-c]quinazolin-2-yl)methyl)phenyl)piperazine-1-carboxylate] | 224 nM |  |
| COc1cccc2c1nc(N)n1nc(Cc3ccc(N4CCNCC4)cc3)cc21 [Ex-25, 7-methoxy-2-(4-(piperazin-1-yl)benzyl)pyrazolo[1,5-c]quinazolin-5-amine] | 333 nM |  |
| CCN1CCN(c2ccccc2Cc2cc3c4cccc(OC)c4nc(N)n3n2)CC1 [Ex-26, 2-(2-(4-ethylpiperazin-1-yl)benzyl)-7-methoxypyrazolo[1,5-c]quinazolin-5-amine] | 120 nM |  |

Now from value to compound:

| Ki [1] | Ki (same protocol) | Structure (SMILES) |
| --- | --- | --- |
| 18 nM |  | COc1cccc2c1nc(N)n1nc(Cc3ccccc3CN3CCC(C)(O)CC3)cc21 [Ex-27, 1-(2-((5-amino-7-methoxypyrazolo[1,5-c]quinazolin-2-yl)methyl)benzyl)-4-methylpiperidin-4-ol] |
| 9 nM |  | COc1cccc2c1nc(N)n1nc(Cc3ccccc3CN3CC(O)C3)cc21 [Ex-28, 1-(2-((5-amino-7-methoxypyrazolo[1,5-c]quinazolin-2-yl)methyl)benzyl)azetidin-3-ol] |
| 17 nM |  | COc1cccc2c1nc(N)n1nc(Cc3ccccc3CN3CCCC3)cc21 [Ex-29, 7-methoxy-2-(2-(pyrrolidin-1-ylmethyl)benzyl)pyrazolo[1,5-c]quinazolin-5-amine] |
| 1 nM |  | COc1cccc2c1nc(N)n1nc(Cc3ccccc3F)cc21 [Ex-30, 2-(2-fluorobenzyl)-7-methoxypyrazolo[1,5-c]quinazolin-5-amine] |
| 2 nM |  | COc1cccc2c1nc(N)n1nc(Cc3cccc(F)c3)cc21 [Ex-31, 2-(3-fluorobenzyl)-7-methoxypyrazolo[1,5-c]quinazolin-5-amine] |
| 1 nM |  | COc1ccccc1Cc1cc2c3cccc(OC)c3nc(N)n2n1 [Ex-32, 7-methoxy-2-(2-methoxybenzyl)pyrazolo[1,5-c]quinazolin-5-amine] |
| 32 nM |  | COc1ccc(Cc2cc3c4cccc(OC)c4nc(N)n3n2)cc1 [Ex-33, 7-methoxy-2-(4-methoxybenzyl)pyrazolo[1,5-c]quinazolin-5-amine] |
| 7 nM |  | COc1cccc(Cc2cc3c4cccc(OC)c4nc(N)n3n2)c1 [Ex-34, 7-methoxy-2-(3-methoxybenzyl)pyrazolo[1,5-c]quinazolin-5-amine] |
| 130 nM |  | COc1cccc2c1nc(N)n1nc(Cc3ccc(C(F)(F)F)cc3)cc21 [Ex-35, 7-methoxy-2-(4-(trifluoromethyl)benzyl)pyrazolo[1,5-c]quinazolin-5-amine] |
| 12 nM |  | COc1cccc2c1nc(N)n1nc(Cc3cccc(C(F)(F)F)c3)cc21 [Ex-36, 7-methoxy-2-(3-(trifluoromethyl)benzyl)pyrazolo[1,5-c]quinazolin-5-amine] |
| 15 nM |  | COc1cccc2c1nc(N)n1nc(Cc3cnn(C)c3)cc21 [Ex-37, 7-methoxy-2-((1-methyl-1H-pyrazol-4-yl)methyl)pyrazolo[1,5-c]quinazolin-5-amine] |
| 25 nM |  | COc1cccc2c1nc(N)n1nc(Cc3c(F)cccc3Cl)cc21 [Ex-38, 2-(2-chloro-6-fluorobenzyl)-7-methoxypyrazolo[1,5-c]quinazolin-5-amine] |
| 27 nM |  | COc1cccc2c1nc(N)n1nc(Cc3ccc(F)c(F)c3F)cc21 [Ex-39, 7-methoxy-2-(2,3,4-trifluorobenzyl)pyrazolo[1,5-c]quinazolin-5-amine] |
| 6 nM |  | COc1cccc2c1nc(N)n1nc(Cc3cccc(F)c3F)cc21 [Ex-40, 2-(2,3-difluorobenzyl)-7-methoxypyrazolo[1,5-c]quinazolin-5-amine] |
